Measured values reported in patent publication US20110130346A1, “PEPTIDE CONJUGATES FOR DELVERY OF BIOLOGICALLY ACTIVE COMPOUNDS” (ISIS INNOVATION LIMITED, priority 2008, published 2011).

Tests used:
[1] = tested on: exon and intron 23 of the dystrophin gene; experiment: Example 2: intramuscular injection into TA muscle, dystrophin-positive fibres by immunohistochemistry; assay type: in vivo, mdx mice
Excerpt: Here we aim to evaluate the potential of PNA AOs as splice correcting therapeutic agents for DMD, by studying their activity under a range of conditions in mdx mice carrying a nonsense mutation in exon 23 of the dystrophin gene. PNAs and PNA-pepide conjugates were studied following intramuscular delivery into adult (6-8 week old) mdx tibialis anterior (TA) muscles or via systemic intravenous tail vein delivery in mdx mice unless otherwise stated.
For intramuscular studies the TA muscle of each experimental mdx mouse was injected with a […] dose of PNA and PNA-peptide conjugates with saline at a final concentration of 125 μg/ml. For systemic intravenous injections, Various amount of PNA or PNA-peptide conjugates in 80 μl saline buffer were injected into tail vein of mdx mice at the final dose of 25 mg/kg, 50 mg/kg and 100 mg/kg, respectively. The animals were killed at various time points after injection by CO2 inhalation and tissues were removed and snap-frozen in liquid nitrogen-cooled isopentane and stored at −80° C.
Sections of 8 μm were cut from at least two-thirds of the muscle length of TA, quadriceps, gastrocnemius, biceps, abdominal wall and diaphragm muscles and cardiac muscle at 100 μm intervals. The sections were then examined for dystrophin expression with a polyclonal antibody 2166 against the dystrophin carboxyl-terminal region. The maximum number of dystrophin-positive fibres in one section was counted using the Zeiss AxioVision fluorescence microscope. The intervening muscle sections were collected either for RT-PCR analysis and Western blot or as serial sections for immunohistochemistry. Polyclonal antibodies were detected by goat-anti-rabbit IgGs Alexa Fluro 594 (Molecular Probe, UK). […]

[2] = tested on: exon and intron 23 of the dystrophin gene; experiment: Example 2: systemic intravenous injection, Western blot of dystrophin; assay type: in vivo, mdx mice; conditions: intravenous 25, 50 and 100 mg/kg
Excerpt: To develop AO splice correction therapy for DMD it is essential to establish effective systemic dystrophin correction since DMD is a systemic disease affecting all skeletal muscles, including the diaphragm, and cardiac muscle. Other AO chemistries, including 2′OMePS and PMO chemistries, have been reported to yield variable dystrophin splice correction following intravenous systemic delivery in mdx mice, with high systemic doses being required to detect appreciable efficacy. Here we wished to evaluate the potential of neutral PNA AOs for systemic splice correction in body-wide muscles, and initially evaluated a dose-response using three intravenous single PNA doses of 25, 50 and 100 mg/kg administered to 6 week old mdx mice via tail vein injections. […]
The collected sections were placed in a 1.5 ml polypropylene eppendorf tube (Anachem, UK) on dry ice. […] The supernatant was collected and the protein concentration was quantified by Bradford assay (Sigma, UK). […] The bound primary antibody was detected by horseradish peroxidise-conjugated rabbit anti-mouse IgGs and the ECL Western Blotting Analysis system (Amersham Pharmacia Biosciences, UK). The intensity of the bands obtained from treated mdx muscles was measured by Image J software; the quantification is based on band intensity and area, and is compared with that from normal muscles of C57BL6 mice.

[3] = Example 2: serum creatine kinase and AST/ALT after systemic injection; assay type: in vivo, mdx mice; conditions: intravenous 25, 50 and 100 mg/kg
Excerpt: To develop AO splice correction therapy for DMD it is essential to establish effective systemic dystrophin correction since DMD is a systemic disease affecting all skeletal muscles, including the diaphragm, and cardiac muscle. Other AO chemistries, including 2′OMePS and PMO chemistries, have been reported to yield variable dystrophin splice correction following intravenous systemic delivery in mdx mice, with high systemic doses being required to detect appreciable efficacy. Here we wished to evaluate the potential of neutral PNA AOs for systemic splice correction in body-wide muscles, and initially evaluated a dose-response using three intravenous single PNA doses of 25, 50 and 100 mg/kg administered to 6 week old mdx mice via tail vein injections. Dystrophin expression was studied by immunostaining of muscle tissue sections from various peripheral muscles (including quadriceps, gastrocnemius, biceps, abdominal wall, diaphragm) and heart muscle three weeks after AO administration (FIG. 7A). […] Measures of phenotypic correction, including serum biochemical measurements of creatine kinase and AST/ALT enzyme levels were negative (FIGS. 7C and D).
Serum and plasma were taken from the mouse jugular vein immediately after the killing with CO2 inhalation. […]

[4] = tested on: exon and intron 23 of the dystrophin gene; experiment: Example 3: intramuscular injection of glucose-formulated AOs, dystrophin-positive myofibres by immunohistochemistry; assay type: in vivo; conditions: intramuscular into TA, 8 week old mdx mice, two weeks
Method: Here we study a novel delivery glucose formulation by evaluating it via local intramuscular injection into the mdx mouse tibialis anterior (TA) muscle. Initial experiments were performed in 6-8 week old mdx mice (referred to as 8 weeks) by treatment with a single dose of 5 ug of 2′OMePS AO formulated in 5% glucose. In a parallel control study, age-matched control mdx mice were treated with the same AO dose formulated in standard saline buffer.
For intramuscular studies the TA muscle of each experimental mdx mouse was injected with a 40 μl dose of PNA and PNA-peptide conjugates with saline at a final concentration of 125 μg/ml, and the contralateral muscle was injected with saline. […]
Sections of 8 μm were cut from at least two-thirds of the muscle length of TA, quadriceps, gastrocnemius, biceps, abdominal wall and diaphragm muscles and cardiac muscle at 100 μm intervals. […] The maximum number of dystrophin-positive fibres in one section was counted using the Zeiss AxioVision fluorescence microscope. […] Polyclonal antibodies were detected by goat-anti-rabbit IgGs Alexa Fluro 594 (Molecular Probe, UK). […] Polyclonal antibodies were detected by goat-anti-rabbit IgGs Alexa 594 and the monoclonal antibodies by goat-anti-mouse IgGs Alexa 594 (Molecular Probe, UK). […]

Which results are given for 5′-ggccaaaccteggcttacct-3′ [PNA]?
number of dystrophin-positive fibres ([1]; 12-month old mdx mice, 5 ug intramuscular into TA, two weeks): 388±24; persistence of splice correction effect ([1]; two month old mdx mice, 5 ug intramuscular): greater than 20 weeks; number of dystrophin-positive fibres ([1]; two month old mdx mice, 5 ug intramuscular, 8 week time point (peak)): greater than 650; dystrophin protein (Western blot) [2]: Under detectable level; phenotypic correction: serum creatine kinase and AST/ALT enzyme levels [3]: negative; dystrophin-positive myofibres, 5% glucose formulation compared with saline formulation [4]: significant improvement
